USRE50189E1, “Long term treatment of HIV-infection with TMC278” (Janssen Sciences Ireland Unlimited Company, priority 2006, dated 2024)

Legend:
[1] = plasma kinetics of TMC278 in the beagle dog after single intramuscular administration of aqueous 30% DMA/50% PEG400 solution; assay type: in vivo; conditions: single IM 2.5 mg/kg
Description: The study was performed in order to study the plasma kinetics and the absolute bioavailability of TMC278 in the beagle dog after single intramuscular administration (IM) of an aqueous 30% dimethylacetamide (DMA)/50% polyethylene glycol 400 (PEG400) solution of TMC278 at 2.5 mg/kg. The dogs were dosed IM.
Two male beagle dogs (dog No. 16924 and 16854), approximately 3 years old and weighing between 11 and 12 kg at the start of the experimental phase, were used in the present experiment. The dogs were dosed intramuscularly at 0.1 ml/kg body weight by injecting the formulation in the left (dog No. 16924) or right (dog No. 16854) m. biceps femoris. […]
Blood samples (4 ml on EDTA) were taken from a jugular vein from the dogs at 0 (=predose), 0.5, 1, 2, 4, 8, 24, 32, 48, 72, 96, 144, 192, 240 and 312 h after dose administration. […] These samples were analogously processed and analysed.
On day 232 post-dose, a biopsy was performed (dog No. 16924 only) on the iliac lymph node (at the side of injection), on a muscle from the non-injected hind leg and on a muscle at the side of injection after ultrasonographic examination. […] This sample was processed and analysed similarly to the other blood samples.
The concentration of TMC278 in dog plasma was determined by a qualified research LC-MS/MS method after solid phase extraction (SPE). […]

[2] = test system: wild type HIV and mutated variants; conditions: cited from earlier work

Cc1cc(C=CC#N)cc(C)c1Nc1ccnc(Nc2ccc(C#N)cc2)n1 [TMC278, 4-[[4-[[4-(2-cyanoethenyl)-2,6-dimethylphenyl]amino]-2-pyrimidinyl]amino]benzonitrile]
t1/2,24-72h ([1]; mean (n=2)): 63.1 h
course of plasma levels after 72 h post-dose ([1]; 72 h up to 312 h post-dose): remained fairly constant or slightly increased
activity against wild type HIV and many of its mutated variants [2]: pronounced activity
